# Tests used:
# Assay type in all cases: functional
# Erythrocyte [1] = experiment: Inhibition of AAPH-induced hemolysis in human erythrocytes assessed as hemolysis time at 12.3 uM
# Erythrocyte [2] = experiment: Inhibition of AAPH-induced hemolysis in human erythrocytes assessed as hemolysis time at 20.6 uM
# Erythrocyte [3] = experiment: Inhibition of AAPH-induced hemolysis in human erythrocytes assessed as hemolysis inhibition time at 9.26 uM
# Erythrocyte [4] = experiment: Inhibition of AAPH-induced hemolysis in human erythrocytes assessed as hemolysis inhibition time at 12.3 uM
# Erythrocyte [5] = experiment: Inhibition of AAPH-induced hemolysis in human erythrocytes assessed as hemolysis inhibition time at 6.17 uM
# Erythrocyte [6] = experiment: Inhibition of AAPH-induced hemolysis in human erythrocytes assessed as hemolysis inhibition time at 20.6 uM
# Erythrocyte [7] = experiment: Inhibition of AAPH-induced hemolysis in human erythrocytes assessed as hemolysis time at 15.4 uM
# Erythrocyte [8] = experiment: Inhibition of AAPH-induced hemolysis in human erythrocytes assessed as hemolysis inhibition time at 15.4 uM
# Erythrocyte [9] = experiment: Inhibition of AAPH-induced hemolysis in human erythrocytes assessed as hemolysis time at 6.17 uM
# Erythrocyte [10] = experiment: Inhibition of AAPH-induced hemolysis in human erythrocytes assessed as hemolysis time at 9.26 uM
# Erythrocyte [11] = experiment: Inhibition of AAPH-induced hemolysis in human erythrocytes assessed as hemolysis time at 6 uM
# Erythrocyte [12] = experiment: Inhibition of AAPH-induced hemolysis in human erythrocytes assessed as hemolysis inhibition time at 12 uM
# Erythrocyte [13] = experiment: Inhibition of AAPH-induced hemolysis in human erythrocytes assessed as hemolysis inhibition time at 3 uM
# Erythrocyte [14] = experiment: Inhibition of AAPH-induced hemolysis in human erythrocytes assessed as hemolysis inhibition time at 9 uM
# Erythrocyte [15] = experiment: Inhibition of AAPH-induced hemolysis in human erythrocytes assessed as hemolysis inhibition time at 15 uM
# Erythrocyte [16] = experiment: Inhibition of AAPH-induced hemolysis in human erythrocytes assessed as hemolysis time at 3 uM
# Erythrocyte [17] = experiment: Inhibition of AAPH-induced hemolysis in human erythrocytes assessed as hemolysis time at 15 uM
# Erythrocyte [18] = experiment: Inhibition of AAPH-induced hemolysis in human erythrocytes assessed as hemolysis time at 9 uM
# Erythrocyte [19] = experiment: Inhibition of AAPH-induced hemolysis in human erythrocytes assessed as hemolysis inhibition time at 6 uM
# Erythrocyte [20] = experiment: Inhibition of AAPH-induced hemolysis in human erythrocytes assessed as hemolysis time at 12 uM
# Erythrocyte [21] = experiment: Inhibition of AAPH-induced hemolysis in human erythrocytes assessed as hemolysis inhibition time at 12.4 uM
# Erythrocyte [22] = experiment: Inhibition of AAPH-induced hemolysis in human erythrocytes assessed as hemolysis time at 8.26 uM
# Erythrocyte [23] = experiment: Inhibition of AAPH-induced hemolysis in human erythrocytes assessed as hemolysis inhibition time at 24.8 uM
# Erythrocyte [24] = experiment: Inhibition of AAPH-induced hemolysis in human erythrocytes assessed as hemolysis inhibition time at 8.26 uM
# Erythrocyte [25] = experiment: Inhibition of AAPH-induced hemolysis in human erythrocytes assessed as hemolysis inhibition time at 16.5 uM
# Erythrocyte [26] = experiment: Inhibition of AAPH-induced hemolysis in human erythrocytes assessed as hemolysis inhibition time at 20.7 uM
# Erythrocyte [27] = experiment: Inhibition of AAPH-induced hemolysis in human erythrocytes assessed as hemolysis time at 20.7 uM
# Erythrocyte [28] = experiment: Inhibition of AAPH-induced hemolysis in human erythrocytes assessed as hemolysis time at 12.4 uM
# Erythrocyte [29] = experiment: Inhibition of AAPH-induced hemolysis in human erythrocytes assessed as hemolysis time at 24.8 uM
# Erythrocyte [30] = experiment: Inhibition of AAPH-induced hemolysis in human erythrocytes assessed as hemolysis time at 16.5 uM
# Erythrocyte [31] = experiment: Inhibition of AAPH-induced hemolysis in human erythrocytes assessed as hemolysis inhibition time at 37.3 uM
# Erythrocyte [32] = experiment: Inhibition of AAPH-induced hemolysis in human erythrocytes assessed as hemolysis inhibition time at 61 uM
# Erythrocyte [33] = experiment: Inhibition of AAPH-induced hemolysis in human erythrocytes assessed as hemolysis time at 37.3 uM
# Erythrocyte [34] = experiment: Inhibition of AAPH-induced hemolysis in human erythrocytes assessed as hemolysis time at 61 uM
# Erythrocyte [35] = experiment: Inhibition of AAPH-induced hemolysis in human erythrocytes assessed as hemolysis time at 20.3 uM
# Erythrocyte [36] = experiment: Inhibition of AAPH-induced hemolysis in human erythrocytes assessed as hemolysis inhibition time at 50.8 uM
# Erythrocyte [37] = experiment: Inhibition of AAPH-induced hemolysis in human erythrocytes assessed as hemolysis time at 30.5 uM
# Erythrocyte [38] = experiment: Inhibition of AAPH-induced hemolysis in human erythrocytes assessed as hemolysis inhibition time at 30.5 uM
# Erythrocyte [39] = experiment: Inhibition of AAPH-induced hemolysis in human erythrocytes assessed as hemolysis inhibition time at 20.3 uM
# Erythrocyte [40] = experiment: Inhibition of AAPH-induced hemolysis in human erythrocytes assessed as hemolysis time at 50.8 uM
# Erythrocyte [41] = experiment: Inhibition of AAPH-induced hemolysis in human erythrocytes assessed as hemolysis inhibition time at 9.27 uM
# Erythrocyte [42] = experiment: Inhibition of AAPH-induced hemolysis in human erythrocytes assessed as hemolysis time at 13.9 uM
# Erythrocyte [43] = experiment: Inhibition of AAPH-induced hemolysis in human erythrocytes assessed as hemolysis inhibition time at 15.5 uM
# Erythrocyte [44] = experiment: Inhibition of AAPH-induced hemolysis in human erythrocytes assessed as hemolysis inhibition time at 10.8 uM
# Erythrocyte [45] = experiment: Inhibition of AAPH-induced hemolysis in human erythrocytes assessed as hemolysis inhibition time at 13.9 uM
# Erythrocyte [46] = experiment: Inhibition of AAPH-induced hemolysis in human erythrocytes assessed as hemolysis time at 10.8 uM
# Erythrocyte [47] = experiment: Inhibition of AAPH-induced hemolysis in human erythrocytes assessed as hemolysis time at 15.5 uM
# Erythrocyte [48] = experiment: Inhibition of AAPH-induced hemolysis in human erythrocytes assessed as hemolysis time at 9.27 uM
smiles,measurement,setting,value
c1ccc2c(c1)[nH]c1ccccc12 [CARBAZOLE],Activity,Erythrocyte [1],327 min
same,Activity,Erythrocyte [2],406 min
same,Activity,Erythrocyte [3],101 min
same,Activity,Erythrocyte [4],130 min
same,Activity,Erythrocyte [5],68 min
same,Activity,Erythrocyte [6],209 min
same,Activity,Erythrocyte [7],364 min
same,Activity,Erythrocyte [8],167 min
same,Activity,Erythrocyte [9],265 min
same,Activity,Erythrocyte [10],298 min
c1ccc(Nc2ccccc2)cc1 [DIPHENYLAMINE],Activity,Erythrocyte [11],346 min
same,Activity,Erythrocyte [12],225 min
same,Activity,Erythrocyte [13],24 min
same,Activity,Erythrocyte [14],167 min
same,Activity,Erythrocyte [15],256 min
same,Activity,Erythrocyte [16],257 min
same,Activity,Erythrocyte [17],489 min
same,Activity,Erythrocyte [18],400 min
same,Activity,Erythrocyte [19],113 min
same,Activity,Erythrocyte [20],458 min
C1=Cc2ccccc2Nc2ccccc21 [IMINOSTILBENE],Activity,Erythrocyte [21],85 min
same,Activity,Erythrocyte [22],264 min
same,Activity,Erythrocyte [23],169 min
same,Activity,Erythrocyte [24],52 min
same,Activity,Erythrocyte [25],121 min
same,Activity,Erythrocyte [26],153 min
same,Activity,Erythrocyte [27],365 min
same,Activity,Erythrocyte [28],297 min
same,Activity,Erythrocyte [29],381 min
same,Activity,Erythrocyte [30],333 min
c1ccc2c(c1)Nc1ccccc1S2 [PHENOTHIAZINE],Activity,Erythrocyte [31],157 min
same,Activity,Erythrocyte [32],240 min
same,Activity,Erythrocyte [33],368 min
same,Activity,Erythrocyte [34],451 min
same,Activity,Erythrocyte [35],275 min
same,Activity,Erythrocyte [36],197 min
same,Activity,Erythrocyte [37],330 min
same,Activity,Erythrocyte [38],119 min
same,Activity,Erythrocyte [39],64 min
same,Activity,Erythrocyte [40],408 min
c1ccc2c(c1)Nc1ccccc1O2 [PHENOXAZINE],Activity,Erythrocyte [41],158 min
same,Activity,Erythrocyte [21],238 min
same,Activity,Erythrocyte [42],461 min
same,Activity,Erythrocyte [43],322 min
same,Activity,Erythrocyte [44],192 min
same,Activity,Erythrocyte [45],274 min
same,Activity,Erythrocyte [28],425 min
same,Activity,Erythrocyte [46],379 min
same,Activity,Erythrocyte [47],509 min
same,Activity,Erythrocyte [48],345 min

# Reference: ChEMBL document CHEMBL1146373, “Free-radical-scavenging effect of carbazole derivatives on AAPH-induced hemolysis of human erythrocytes” (2007)
